Results on 17 compounds are retold here after ChEMBL document CHEMBL1144187, “Pharmacophore modeling and virtual screening for designing potential PLK1 inhibitors” (Bioorg Med Chem Lett, 2008).

The structures appear in SMILES notation.

Broadly, the IC50 is the concentration at which inhibition is half-maximal.

In the assay the target is Serine/threonine-protein kinase PLK1 (Homo sapiens, UniProt P53350).
Sequence of Serine/threonine-protein kinase PLK1 (P53350 whole entry): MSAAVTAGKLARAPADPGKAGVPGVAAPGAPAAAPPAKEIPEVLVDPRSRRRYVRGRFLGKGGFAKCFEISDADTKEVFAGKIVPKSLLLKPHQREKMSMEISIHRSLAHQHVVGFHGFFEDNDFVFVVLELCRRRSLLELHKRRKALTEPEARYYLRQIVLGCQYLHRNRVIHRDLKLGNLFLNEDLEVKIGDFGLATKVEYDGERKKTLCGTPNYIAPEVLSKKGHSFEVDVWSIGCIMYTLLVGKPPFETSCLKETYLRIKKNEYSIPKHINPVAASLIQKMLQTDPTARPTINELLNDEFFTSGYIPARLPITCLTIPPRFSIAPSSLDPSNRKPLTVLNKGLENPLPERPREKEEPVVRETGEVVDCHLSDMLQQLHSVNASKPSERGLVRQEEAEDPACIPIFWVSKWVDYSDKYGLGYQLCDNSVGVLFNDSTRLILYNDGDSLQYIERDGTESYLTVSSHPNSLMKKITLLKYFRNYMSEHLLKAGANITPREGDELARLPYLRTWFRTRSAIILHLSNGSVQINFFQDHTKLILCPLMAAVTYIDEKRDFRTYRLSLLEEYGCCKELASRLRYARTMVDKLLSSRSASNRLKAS
`FC(F)(F)c1ccc(Nc2nc(NCc3cccnc3)ncc2-c2nn[nH]n2)cc1` returned an IC50 of 490 nM.

`CCCN(CC1CC1)c1nc(NCc2ccc3c(c2)OCO3)ncc1C#N`: half-maximal inhibition (IC50) was put at 1600 nM.

Compound `CCOC(=O)/C(C#N)=c1\s/c(=C/Nc2ccccc2F)c(=O)n1CC` displayed an IC50 of 160 nM. For `CC(C)(C)c1ccc(Nc2nc(NCc3cccnc3)ncc2-c2nn[nH]n2)cc1` the value was 960 nM; for `c1csc(CCNc2ncc(-c3nnn[nH]3)c(Nc3ccc4c(c3)OCCO4)n2)c1`, 1040 nM; for `CCCN(CC1CC1)c1nc(NC(C)c2ccccc2)ncc1C#N` (configuration not stated), 550 nM. For `C=CCOC(=O)/C(C#N)=C1\S[C@@H](CNc2ccc(NC(=O)NCCN3CCCC3)cc2)C(=O)N1CC` the value was 23 nM; for `CC(Nc1ncc(C#N)c(N2CCc3ccccc3C2)n1)c1ccccc1` (configuration not stated), 750 nM. For `CC(=O)N(C)c1cccc(Nc2nc(NCCc3cccs3)ncc2-c2nn[nH]n2)c1` the value was 330 nM; for `CC(Nc1ncc(C#N)c(OCC2CCCCO2)n1)c1ccccc1` (configuration not stated), 1600 nM; for `O=C1C(C2=C3C(=Nc4ccccc43)/C(=C\c3ccc(O)cc3)C2=O)=C2C(=Nc3ccccc32)/C1=C\c1ccc(O)cc1`, 2000 nM.

In turn, `C#CNC(=O)/C(C#N)=c1\s/c(=C/Nc2ccc(OCCN(C)C)cc2)c(=O)n1CC` displayed a half-maximal inhibitory concentration (IC50) of 71 nM.

`CCn1c(=O)/c(=C\Nc2ccc(OCCN(C)C)cc2)s/c1=C(/C#N)C(=O)NCC(F)F` gave an IC50 of 74 nM. For `CN1CCN(c2ccc(C(=O)Nc3[nH]nc4c3CN(C(=O)Cc3cccs3)C4)cc2)CC1` the value was 530 nM.

`N[C@H](COc1cncc(-c2cc3ccncc3s2)c1)Cc1c[nH]c2ccccc12`: the concentration for half-maximal inhibition (IC50) turned out to be 10000 nM. Compound `CCOC(=O)/C(C#N)=c1\s/c(=C/Nc2ccc(NC(=O)COC)cc2)c(=O)n1CC` came in with a half-inhibitory concentration (IC50) of 500 nM. For `O=c1c(O)c(-c2ccc(O)c(O)c2)oc2cc(O)cc(O)c12` [QUERCETIN] the value was 64000 nM.
